Measured values as given in patent EP2931723B1, “NEW BICYCLIC COMPOUNDS AND THEIR USE AS ANTIBACTERIAL AGENTS AND -LACTAMASE INHIBITORS” (Fedora Pharmaceuticals Inc., priority 2012, dated 2014).

How the values were obtained:
Assay in all cases: MIC, antibacterial and synergistic activity
Type in all cases: cell-based
K.pneumo JMI 4109 [1] = conditions: K.pneumo JMI 4109 (SHV-1, SHV-12)
Experimental: (§1) In the Tables 10 - 12, compounds herein disclosed were tested in combination with various antibiotics against metallo β-lactamase producing bacteria. Table 3: Synergy of the inhibitor Ex. 1 (4 µg/mL) in combination with antibiotics

E. coli JMI 2665 = test system: E. coli JMI 2665
Experimental: as §1

E. coli JMI 10770 [2] = conditions: E. coli JMI 10770 (CTX-M15 (Hyper ESBL))
Experimental: as §1

K. pneumo JMI 2699 = K. pneumo JMI 2699 (VIM-1, CTX-M3)
Experimental: as §1

E. coli JMI 2671 = test system: E. coli JMI 2671
Experimental: as §1

K. pneumo JMI 4088 [3] = conditions: K. pneumo JMI 4088 (KPC-3 (Cpase))
Experimental: as §1

K. pneumo JMI 2674 [4] = conditions: K. pneumo JMI 2674 (CTX-M15 (ESBL))
Experimental: as §1

E. coli JMI 10767 [5] = conditions: E. coli JMI 10767 (Wt)
Experimental: as §1

E. coli JMI 10768 [6] = conditions: E. coli JMI 10768 (CTX-M15 (Weak ESBL))
Experimental: as §1

E. cloacae JMI 36 = E. cloacae JMI 36 (P99)
E. coli ATCC 25922 = E. coli ATCC 25922 (Wt)
K. pneumo JMI 4088 [7] = conditions: K. pneumo JMI 4088 (KPC-3 (Cpase)); substance alone
K. pneumo JMI 4106 = K. pneumo JMI 4106 (KPC-3, TEM-1, SHV-12, SHV-141)
P. aerug JMI 2686 = P. aerug JMI 2686 (KPC-2 (Cpase)); substance alone
E. coli JMI 11103 = test system: E. coli JMI 11103
E. coli JMI 10768 [8] = conditions: E. coli JMI 10768 (CTX-M15 (Weak ESBL)); Meropenem + inhibitor at 4 µg/mL
K. pneumo JMI 2673 = K. pneumo JMI 2673 (CTX-M14 (ESBL)); substance alone
K.pneumo JMI 4109 [9] = conditions: K.pneumo JMI 4109 (SHV-1, SHV-12); substance alone
E. coli JMI 10770 [10] = conditions: Escherichia coli, JMI10770; E. coli JMI 10770 (CTX-M15 (Hyper ESBL)); substance alone
P. aerug JMI 149 = P. aerug JMI 149 (Bla+++D+)
K. pneumo JMI 2674 [11] = conditions: K. pneumo JMI 2674 (CTX-M15 (ESBL)); substance alone
K. pneumo JMI 2681 = K. pneumo JMI 2681 (Oxa-48 (Cpase))
E. coli JMI 10767 [12] = conditions: E. coli JMI 10767 (Wt); remark: listed apart in the source
[13] = Aztreonam + inhibitor at 4 µg/mL
[14] = Ceftazidime + inhibitor at 4 µg/mL
[15] = Meropenem + inhibitor at 4 µg/mL

O=C(NNC(=O)[C@H]1CC[C@H]2CN1C(=O)N2OS(=O)(=O)O)C1CC1 (stereo in doubt) [Ex. 7, (2R,5S)-N'-(cyclopropylcarbonyl)-7-oxo-6-(sulfooxy)-1,6-diazabicyclo[3.2.1]octane-2-carbohydrazide]
MIC Aztreonam + inhibitor (K.pneumo JMI 4109 [1]; [13]): 0.125 mg/L
MIC Ceftazidime + inhibitor (K.pneumo JMI 4109 [1]; [14]): ≤0.25 mg/L
MIC Meropenem + inhibitor (K.pneumo JMI 4109 [1]; [15]): ≤0.0312 mg/L
MIC Aztreonam + inhibitor (E. coli JMI 2665; E. coli JMI 2665 (CMY-2 (Plasmid Cpase)), Aztreonam + inhibitor at 4 µg/mL): ≤0.062 mg/L
MIC Ceftazidime + inhibitor (E. coli JMI 2665; E. coli JMI 2665 (CMY-2 (Plasmid Cpase)), Ceftazidime + inhibitor at 4 µg/mL): ≤0.25 mg/L
MIC (E. coli JMI 2665; Escherichia coli, JMI2665): 2 mg/L
MIC Aztreonam + inhibitor (E. coli JMI 10770 [2]; [13]): ≤0.062 mg/L
MIC Ceftazidime + inhibitor (E. coli JMI 10770 [2]; [14]): ≤0.25 mg/L
MIC Meropenem + inhibitor (E. coli JMI 10770 [2]; [15]): ≤0.0312 mg/L
MIC Aztreonam + inhibitor (K. pneumo JMI 2699; [13]): ≤0.062 mg/L
MIC Ceftazidime + inhibitor (K. pneumo JMI 2699; [14]): 0.5 mg/L
MIC Meropenem + inhibitor (K. pneumo JMI 2699; [15]): 0.5 mg/L
MIC (K. pneumo JMI 2699; substance alone, read-out: MIC): 16 mg/L
MIC Aztreonam + inhibitor (E. coli JMI 2671; E. coli JMI 2671 (VIM-19 (Cpase)), Aztreonam + inhibitor at 4 µg/mL): ≤0.062 mg/L
MIC Ceftazidime + inhibitor (E. coli JMI 2671; E. coli JMI 2671 (VIM-19 (Cpase)), Ceftazidime + inhibitor at 4 µg/mL): 0.5 mg/L
MIC Meropenem + inhibitor (E. coli JMI 2671; E. coli JMI 2671 (VIM-19 (Cpase)), Meropenem + inhibitor at 4 µg/mL): 0.5 mg/L
MIC (E. coli JMI 2671; Escherichia coli, JMI2671, E. coli JMI 2671 (VIM-19 (Cpase)), substance alone): 8 mg/L
MIC Aztreonam + inhibitor (K. pneumo JMI 4088 [3]; [13]): 0.125 mg/L
MIC Ceftazidime + inhibitor (K. pneumo JMI 4088 [3]; [14]): 1 mg/L
MIC Meropenem + inhibitor (K. pneumo JMI 4088 [3]; [15]): 1 mg/L
MIC Aztreonam + inhibitor (K. pneumo JMI 2674 [4]; [13]): ≤0.062 mg/L
MIC Ceftazidime + inhibitor (K. pneumo JMI 2674 [4]; [14]): ≤0.25 mg/L
MIC Meropenem + inhibitor (K. pneumo JMI 2674 [4]; [15]): 0.125 mg/L
MIC Aztreonam + inhibitor (E. coli JMI 10767 [5]; [13]): ≤0.062 mg/L
MIC Ceftazidime + inhibitor (E. coli JMI 10767 [5]; [14]): ≤0.25 mg/L
MIC Aztreonam + inhibitor (E. coli JMI 10768 [6]; [13]): ≤0.062 mg/L
MIC Ceftazidime + inhibitor (E. coli JMI 10768 [6]; [14]): 2 mg/L
MIC (E. coli JMI 10768 [6]; Escherichia coli, JMI10768, substance alone): 16 mg/L
MIC Aztreonam + inhibitor (E. cloacae JMI 36; [13]): 0.125 mg/L
MIC Ceftazidime + inhibitor (E. cloacae JMI 36; [14]): 0.5 mg/L
MIC Meropenem + inhibitor (E. cloacae JMI 36; [15]): 0.125 mg/L
MIC (E. cloacae JMI 36; Enterobacter cloacae, JMI36, substance alone, read-out: MIC): > 16 mg/L
MIC Aztreonam + inhibitor (E. coli ATCC 25922; [13]): ≤0.0625 mg/L
MIC Ceftazidime + inhibitor (E. coli ATCC 25922; [14]): ≤0.25 mg/L
MIC Meropenem + inhibitor (E. coli ATCC 25922; [15]): ≤0.0312 mg/L
MIC (E. coli ATCC 25922; Escherichia coli, ATCC25922, substance alone): > 16 mg/L
MIC (K. pneumo JMI 4088 [7]): > 16 mg/L
MIC Aztreonam + inhibitor (K. pneumo JMI 4106; [13]): 0.125 mg/L
MIC Ceftazidime + inhibitor (K. pneumo JMI 4106; [14]): ≤0.25 mg/L
MIC Meropenem + inhibitor (K. pneumo JMI 4106; [15]): ≤0.0312 mg/L
MIC (K. pneumo JMI 4106; substance alone, read-out: MIC): 16 mg/L
MIC (P. aerug JMI 2686): > 16 mg/L
MIC Aztreonam + inhibitor (E. coli JMI 11103; E. coli JMI 11103 (CTX-M15 (Intermediate ESBL)), Aztreonam + inhibitor at 4 µg/mL): ≤0.062 mg/L
MIC Ceftazidime + inhibitor (E. coli JMI 11103; E. coli JMI 11103 (CTX-M15 (Intermediate ESBL)), Ceftazidime + inhibitor at 4 µg/mL): ≤0.25 mg/L
MIC Meropenem + inhibitor (E. coli JMI 11103; E. coli JMI 11103 (CTX-M15 (Intermediate ESBL)), Meropenem + inhibitor at 4 µg/mL): ≤0.0312 mg/L
MIC (E. coli JMI 11103; Escherichia coli, JMI11103, E. coli JMI 11103 (CTX-M15 (Intermediate ESBL)), substance alone): 16 mg/L
MIC Meropenem + inhibitor (E. coli JMI 10768 [8]): ≤0.0312 mg/L
MIC (K. pneumo JMI 2673): > 16 mg/L
MIC (K.pneumo JMI 4109 [9]): 2 mg/L
MIC (E. coli JMI 10770 [10]): 8 mg/L
MIC Aztreonam + inhibitor (P. aerug JMI 149; [13]): >4 mg/L
MIC Ceftazidime + inhibitor (P. aerug JMI 149; [14]): >16 mg/L
MIC Meropenem + inhibitor (P. aerug JMI 149; [15]): >2 mg/L
MIC (P. aerug JMI 149; substance alone, read-out: MIC): > 16 mg/L
MIC (K. pneumo JMI 2674 [11]): > 16 mg/L
MIC Aztreonam + inhibitor (K. pneumo JMI 2681; [13]): 0.25 mg/L
MIC Ceftazidime + inhibitor (K. pneumo JMI 2681; [14]): 0.5 mg/L
MIC Meropenem + inhibitor (K. pneumo JMI 2681; [15]): 0.25 mg/L
MIC (K. pneumo JMI 2681; substance alone, read-out: MIC): > 16 mg/L
MIC Meropenem + inhibitor (E. coli JMI 10767 [12]; [15]): ≤0.0312 mg/L
MIC (E. coli JMI 10767 [12]; Escherichia coli, JMI10767, substance alone): 8 mg/L
